Reference: US9662370B2, “Peptidyl diacylglycerides” (priority 2008, dated 2017)
Where no end group is shown, it is not given here. DAG = diacylglycerol ester at the C-terminus

Tests used:
[1] = tested on: AR39 Chlamydia pneumoniae; assay: Chlamydia pneumoniae clearance from infected THP-1 monocytes (flow cytometry); assay type: cell-based; details: 25 ng/ml and 50 ng/ml
Method: THP-1 monocytes (5×10^4 cells/well) were cultured in Hank's Buffered Saline 1 with 10% FBS in a 24-well microplate. Cells were infected with […] AR39 Chlamydia pneumoniae (CPn) bacteria cells to give an MOI=1 and the infected cells were maintained for 72 hours after infection with a daily media change. Cells were either treated with the PDAG vehicle (0.01% Tween-20 in DMSO) or PDAG (25 ng/ml and 50 ng/ml) 24 hours prior to infection or 24 hours after infection. After the 72 hour incubation period cells were harvested and permeabilized with Cytofix/Cytoperm (BD Pharmingen) and mouse α-CPn monoclonal IgG (clone 61C75) was added and the permeabilized cells incubated for 1 hour. After incubation cells were washed and FITC labeled α-mouse IgG was added and incubated for 1 hour. Cells were again harvested and washed. Quantitation of infected cells was measured by flow cytometry. The viability of cells was determined by trypan blue exclusion.

M. tuberculosis IgM = tested on: M. tuberculosis IgM; design: species or system New Zealand White rabbits; details: rabbit, in vivo
IL-6 = IL-6 mRNA (real-time PCR) and IL-6 protein (ELISA) in fibroblasts stimulated with PDAG; assay type: cell-based; details: 100 pg/ml PDAG, 24 h
Method: Fibroblasts were stimulated with synthetic PDAG for 24 h. RNA was extracted from the fibroblasts and IL-6 transcripts were measured by real-time PCR and IL-6 protein was measure in the media by ELISA. […] Likewise approximately 2-fold more IL-6 protein in the media of the PDAG treated fibroblasts (P=0.0001) was measured.

Salmonella typhimurium = assay: Lethal Salmonella typhimurium challenge in mice; assay type: in vivo, Swiss Webster mice
Method: Swiss Webster mice were challenged with a lethal dose, 5×10^3 cfu/mouse of Salmonella typhimurium. Fifteen of the mice were treated with 5 μg/ml PDAG 24 hours prior to the lethal inoculation. Mice were maintained and monitored daily for 10 days. […] By day 10, 12 mice in the PDAG treated group remained alive, whereas all had died in the untreated group. P<0.0001.

Hepatitis B virus = assay: HBV replication in HepDES19 cells (core DNA Southern blot); assay type: cell-based; details: HepDES 19 cells
Method: A tetracycline inducible HBV-stable cell line, HepDES19 cells (Guo, 2007), were maintained in DMEM/F-12 medium with penicillin and streptomycin (Invitrogen), 10% FBS, 500 μg/ml G418 (Invitrogen) and 1 μg/ml tetracycline (Sigma-Aldrich, St. Louis, Mo.). To initiate the HBV replication in HepDES19 cells, tetracycline was withdrawn from the medium and the cell was cultured for 4-5 days before viral DNA analysis. To treat the cells with pDAG, the peptide was added in the tetracycline free medium and supplied on the cell culture daily. The concentration of solvent DMSO was adjusted to 0.01% in every treatment.
HBV core DNA was extracted from pDAG-treated HepDES19 cells as described previously (Guo, 2009). Briefly, cells from one 35 mm dish were lysed with 0.5 ml of lysis buffer (10 mM Tris-HCl pH 8.0, 10 mM EDTA, 1% NP40 and 2% sucrose) at 37° C. for 10 minutes. Cell debris and nuclei were removed by centrifugation and the supernatant was mixed with […] of 35% polyethylene glycol (PEG-8000) containing 1.5 M NaCl. After 1 hour incubation in ice, viral nucleocapsids were pelleted by centrifugation at 10,000 rpm for 5 min at 4° C., followed by 1 hour digestion at 37° C. in 200 μl of digestion buffer [0.5 mg/ml pronase (Calbiochem), 0.5% SDS, 150 mM NaCl, 25 mM Tris-HCl pH 8.0, and 10 mM EDTA]. […]

NALP3 = NALP3 transcripts in primary human fibroblasts incubated with PDAG; assay type: cell-based; details: 100 pg/ml, overnight, P=0.007
Method: (§1) mRNA was extracted from primary human fibroblasts incubated overnight with 100 pg/ml synthetic PDAG. NALP3 and NFκB transcripts were measured.

NFκB = NFκB transcripts in primary human fibroblasts incubated with PDAG; assay type: cell-based; details: 100 pg/ml, overnight, P=0.4
Method: as §1

[2] = Stability of PDAG to hydrolysis; assay type: physicochemical; details: acidic conditions

| Substance | Chlamydia pneumoniae clearance from infected monocytes [1] | antigen specific IgM production (M. tuberculosis IgM) | IL-6 protein in the media (IL-6; ELISA, vs control, P=0.0001) | IL-6 mRNA levels (IL-6; vs untreated cells, P=0.001) | mice remaining alive by day 10 (Salmonella typhimurium; fifteen treated mice, 5 μg/ml PDAG 24 hours prior to lethal inoculation, all untreated died, P<0.0001) | disease progression (Salmonella typhimurium; mice infected with a lethal dose of Salmonella typhimurium) | day on which mortality was first observed (Salmonella typhimurium; mice, 5×10^3 cfu/mouse, 5 μg/ml PDAG 24 hours prior to inoculation, control group day 4) | Hepatitis B virus replication (Hepatitis B virus) | NALP3 transcripts increase (NALP3) | NFκB transcripts increase (NFκB) | IgM titer, FCA+PDAG vs FCA only (M. tuberculosis IgM) | lability to hydrolysis [2] |
| --- | --- | --- | --- | --- | --- | --- | --- | --- | --- | --- | --- | --- |
| PDAG peptide: Peptide portion of PDAG without the lipid moiety (acALYDKGYTSKEQKDCVGI, SEQ ID NO:8) (Ac-ALYDKGYTSKEQKDCVGI) | induce Chlamydia pneumoniae clearance | – | – | – | – | – | – | – | – | – | – | – |
| acALYDKGYTSKEQKDCVGI-DAG (Ac-ALYDKGYTSKEQKDCVGI-{DAG}) [PDAG, Peptidyl diacylglyceride: N-acetylated 18-mer peptide esterified at C-terminal isoleucine to 1-stearoyl-2-arachidonoyl-sn-glycerol] | induce Chlamydia pneumoniae clearance | two-fold increase | approximately 2 fold | increase IL-6 mRNA levels | 12 mice | significantly delays disease progression | 7 days | suppresses Hepatitis B virus replication | 1.75 fold | did not | – | – |
| acALYDKGYTSKEQKDCVGI-DAG [native PDAG] | – | – | – | – | – | – | – | – | – | – | significantly greater | especially labile to hydrolysis under acidic conditions |
